Measured values taken from patent publication US11565992B2, “Methods for separation of azeotrope or azeotrope-like compositions of trifluoroiodomethane (CF3I) and trifluoroacetyl chloride (CF3COCI)” (Honeywell International Inc., priority 2020, dated 2023).

Tests used:
[1] = Differential solubility in toluene (PTx method, NRTL model); conditions: around ambient conditions; for solubility in toluene: solvent toluene, from NRTL model generated from the PTx data (FIG. 5)
Description: One such technique, known as the PTx method, collects measurements of the total saturation pressure (“P”) exerted by mixtures of known compositions (“x”) at fixed temperatures (“T”) and cell volumes. […] Using data collected from the PTx experiment, as well as pure component properties of constituents of the mixtures, the thermodynamic properties of the mixtures can be accurately characterized by fitting the component's interaction parameters in a well-defined thermodynamic equation; one such equation is the Nonrandom, Two-liquid (NRTL) activity coefficient model by Renon and Prausnitz (Local Compositions in Thermodynamic Excess Functions for Liquid Mixtures, AIChE Journal, Vol. 14, January 1968, pp. 135-144).
(§1) From a well-characterized thermodynamic model (such as NRTL fit against PTx data), solubility curves can be generated. The solubility is defined as the liquid composition of the solute in the liquid phase at saturation, generally as a function of pressure and temperature. By comparing solubility curves for different solutes, the solvent's selectivity (i.e. preference) towards a particular solute can be identified; the larger the selectivity the more the solvent prefers to absorb one species while rejecting the other.
A set of volume calibrated PTx cells were used to measure the solubility characteristics of trifluoroiodomethane (CF3I) in toluene as well as trifluoroacetyl chloride (CF3COCl) in toluene. Mixtures of trifluoroiodomethane (CF3I) and toluene as well as trifluoroacetyl chloride (CF3COCl) and toluene were gravimetrically prepared into evacuated PTx cells. […] Once at equilibrium, recognized when temperature and pressures of each cell remain stable for several hours, the local temperature and saturation pressures of each cell were recorded and adjustments for the next set point were made. […]
(§2) Using the NRTL model generated from the PTx data, the solubility of both trifluoroiodomethane (CF3I) and trifluoroacetyl chloride (CF3COCl) for a given temperature and pressure can be determined and compared.

[2] = Differential solubility in mineral oil (PTx method, NRTL model); conditions: solvent mineral oil; at or near ambient conditions; from NRTL model generated from the PTx data (FIG. 6)
Description: as §1
Following the same procedure described in Example 7A, the PTx behavior of trifluoroiodomethane (CF3I) with mineral oil and trifluoroacetyl chloride (CF3COCl) with mineral oil was studied at temperatures of 0° C., 20° C., 40° C., and 60° C. Unlike toluene (a single aromatic hydrocarbon entity), the mineral oil solvent comprised a mixture several types of hydrocarbons such as alkanes, cycloalkanes, and others. From the pressure-temperature-composition data, the binary interaction parameters of trifluoroiodomethane (CF3I) with mineral oil and trifluoroacetyl chloride (CF3COCl) with mineral oil for the NRTL activity coefficient model were identified.
as §2

[3] = Differential solubility in acetonitrile (PTx method, NRTL model); conditions: at or near ambient conditions; for solubility in acetonitrile: solvent acetonitrile, from NRTL model generated from the PTx data (FIG. 7)
Description: Static Vapor-Liquid Equilibrium Methods are a class of experimental techniques that can be used to identify thermodynamic interactions between a solvent (i.e. absorbing species) and a target solute (i.e. species being absorbed). One such technique, known as the PTx method, collects measurements of the total saturation pressure (“P”) exerted by mixtures of known compositions (“x”) at fixed temperatures (“T”) and cell volumes. […] Using data collected from the PTx experiment, as well as pure component properties of constituents of the mixtures, the thermodynamic properties of the mixtures can be accurately characterized by fitting the component's interaction parameters in a well-defined thermodynamic equation; one such equation is the Nonrandom, Two-liquid (NRTL) activity coefficient model by Renon and Prausnitz (Local Compositions in Thermodynamic Excess Functions for Liquid Mixtures, AIChE Journal, Vol. 14, January 1968, pp. 135-144).
as §1
Following the same procedure as described in Example 7A, the PTx behavior of trifluoroiodomethane (CF3I) with acetonitrile and trifluoroacetyl chloride (CF3COCl) with acetonitrile was studied at temperatures of −10° C., 10° C., 30° C., and 50° C. […]
as §2

Row | SMILES | selectivity of solvent towards CF3I over CF3COCl ([1]; toluene) | solubility in mineral oil [2] | solubility in acetonitrile [3] | solubility in toluene [1] | selectivity of solvent towards CF3I over CF3COCl ([3]; acetonitrile)
1 | Cc1ccccc1 [toluene] | about 3.5 times | – | – | – | –
2 | O=C(Cl)C(F)(F)F [trifluoroacetyl chloride] | – | about 3.6 mass % | about 15.8 mass % | about 11.6 mass % | –
3 | CC#N [acetonitrile] | – | – | – | – | about 2.5 times
4 | FC(F)(F)I [trifluoroiodomethane] | – | about 12.2 mass % | about 39.0 mass % | about 40.8 mass % | –
